The values below are quoted from earlier work in patent US8105627B2, “Extended release venlafaxine tablet formulation” (priority 2003, dated 2012).

Structures can show the parent of a compound that is named as a salt.

The conditions of the series: plural daily dosing regimen.

For `COc1ccc(C(CN(C)C)C2(O)CCCCC2)cc1` (centres unmarked) [venlafaxine hydrochloride, 1-[(2-dimethylamino)-1-(4-methoxyphenyl)ethyl]cyclohexanol], the patients experiencing nausea result is recorded as “about forty five percent” and the “patients in whom vomiting occurs” value is reported as “about seventeen percent”.
